Consider 1 molecule from paper PMC6934184, “Selective DNA-PKcs inhibition extends the therapeutic index of localized radiotherapy and chemotherapy” (The Journal of Clinical Investigation, 2019).

Molecules are shown by their SMILES.

The assay addresses T1, ALK C1156Y (Homo sapiens, UniProt Q9UM73, C1156Y).
T1 construct: purchased Thermo Fisher Scientific (Life Technologies) SelectScreen
The assay is described as follows: SelectScreen LanthaScreen. The assay is classed as binding. The note with it: read-out: % displacement. An outline of the steps:
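SelectScreen broad panel; activity (Z'LYTE, Adapta) plus binding formats. ATP: Km app for CSF1R Z'LYTE; 10 for CAMK1 Adapta. Readout = % per kinase.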

T1 sequence (Q9UM73 19-1620 C1156Y): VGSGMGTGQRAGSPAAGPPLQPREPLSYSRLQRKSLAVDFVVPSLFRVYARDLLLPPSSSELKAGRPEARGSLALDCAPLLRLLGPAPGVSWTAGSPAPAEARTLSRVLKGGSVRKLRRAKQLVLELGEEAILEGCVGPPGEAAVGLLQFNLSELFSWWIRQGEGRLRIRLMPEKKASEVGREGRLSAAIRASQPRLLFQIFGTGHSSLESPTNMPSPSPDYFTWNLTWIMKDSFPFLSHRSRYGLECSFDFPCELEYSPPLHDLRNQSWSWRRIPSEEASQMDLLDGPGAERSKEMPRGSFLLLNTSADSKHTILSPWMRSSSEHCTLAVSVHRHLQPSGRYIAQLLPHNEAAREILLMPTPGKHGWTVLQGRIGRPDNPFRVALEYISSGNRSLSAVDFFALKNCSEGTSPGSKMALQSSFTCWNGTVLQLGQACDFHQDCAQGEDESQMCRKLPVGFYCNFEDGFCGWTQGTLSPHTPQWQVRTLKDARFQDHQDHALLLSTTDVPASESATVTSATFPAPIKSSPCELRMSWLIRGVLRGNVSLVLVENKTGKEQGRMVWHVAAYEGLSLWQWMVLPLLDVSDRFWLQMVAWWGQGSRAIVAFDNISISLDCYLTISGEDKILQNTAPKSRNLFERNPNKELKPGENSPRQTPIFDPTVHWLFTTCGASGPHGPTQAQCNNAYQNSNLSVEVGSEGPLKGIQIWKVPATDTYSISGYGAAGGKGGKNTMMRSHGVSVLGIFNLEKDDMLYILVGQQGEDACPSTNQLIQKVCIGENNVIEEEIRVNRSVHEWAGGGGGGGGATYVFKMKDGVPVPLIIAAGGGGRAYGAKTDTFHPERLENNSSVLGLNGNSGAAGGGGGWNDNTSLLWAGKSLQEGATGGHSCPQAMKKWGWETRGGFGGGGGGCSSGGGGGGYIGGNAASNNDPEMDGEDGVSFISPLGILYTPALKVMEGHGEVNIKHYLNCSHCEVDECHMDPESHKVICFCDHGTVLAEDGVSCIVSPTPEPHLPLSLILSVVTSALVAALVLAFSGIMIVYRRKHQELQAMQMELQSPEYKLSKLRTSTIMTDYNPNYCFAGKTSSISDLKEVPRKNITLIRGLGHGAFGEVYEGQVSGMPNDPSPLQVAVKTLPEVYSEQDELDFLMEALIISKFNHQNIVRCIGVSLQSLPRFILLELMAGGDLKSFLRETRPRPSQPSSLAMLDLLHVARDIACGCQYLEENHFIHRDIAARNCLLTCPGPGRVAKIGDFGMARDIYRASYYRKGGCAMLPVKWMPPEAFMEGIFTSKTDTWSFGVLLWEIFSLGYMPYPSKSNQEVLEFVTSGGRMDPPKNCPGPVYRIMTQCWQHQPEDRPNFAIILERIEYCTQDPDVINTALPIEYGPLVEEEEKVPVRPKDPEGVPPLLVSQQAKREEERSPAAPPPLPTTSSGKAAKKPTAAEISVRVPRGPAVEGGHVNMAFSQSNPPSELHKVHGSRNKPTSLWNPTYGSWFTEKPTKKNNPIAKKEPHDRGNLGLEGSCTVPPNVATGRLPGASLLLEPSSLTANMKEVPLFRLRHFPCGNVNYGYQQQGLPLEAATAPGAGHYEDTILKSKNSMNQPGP

Regarding `CN(C(=O)CN1CCOCC1)c1ccc2sc3c(-c4cccc5c(=O)cc(N6CC7CCC(C6)O7)oc45)cccc3c2c1` [NU5455], the inhibition at 1 µM amounted to 0.6%.
